Test results taken from PubChem BioAssay AID1963871 (Molecular Pharmacology Branch, DTP, NCI, 2024).

Test system: KRAS-mutant PDC multicell tumor spheroid viability
Assay: Anticancer human tumor 521955-158-R2-J5-PDC patient-derived pancreatic carcinoma cell line growth inhibition [KRAS2]
Conditions: for IC50: curve of first compound; for viability, T/C: stronger effect = lower value; active means viability on the fitted dose curve at most 10% of control; inactive means the rest
Method in brief: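 KRAS-mutant tumor cells were grown as spheroids with HUVEC endothelial cells and human MSCs as stroma. Targeted agents were tested alone and with KRAS pathway inhibitors. Doses started at or near clinical Cmax, or 10 microM, descending half-log.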

[1] = second compound 0.1 µM, first compound 0.01 µM
[2] = second compound 0.1 µM, first compound 0.0316 µM
[3] = second compound 0.1 µM, first compound 0.1 µM
[4] = second compound 0.1 µM, first compound 0.316 µM
[5] = second compound 0.1 µM, first compound 1 µM
[6] = second compound 0.1 µM, first compound 3.16 µM
[7] = second compound 0.316 µM, first compound 0.01 µM
[8] = second compound 0.316 µM, first compound 0.0316 µM
[9] = second compound 0.316 µM, first compound 0.1 µM
[10] = second compound 0.316 µM, first compound 0.316 µM
[11] = second compound 0.316 µM, first compound 1 µM
[12] = second compound 0.316 µM, first compound 3.16 µM
[13] = second compound 1 µM, first compound 0.01 µM
[14] = second compound 1 µM, first compound 0.0316 µM
[15] = second compound 1 µM, first compound 0.1 µM
[16] = second compound 1 µM, first compound 0.316 µM
[17] = second compound 1 µM, first compound 1 µM
[18] = second compound 1 µM, first compound 3.16 µM
[19] = second compound 3.16 µM, first compound 0.01 µM
[20] = second compound 3.16 µM, first compound 0.0316 µM
[21] = second compound 3.16 µM, first compound 0.1 µM
[22] = second compound 3.16 µM, first compound 0.316 µM
[23] = second compound 3.16 µM, first compound 1 µM
[24] = second compound 3.16 µM, first compound 3.16 µM
[25] = second compound 10 µM, first compound 0.0316 µM
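Further: viability read after seven days of drug exposure.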

CC1COCCN1c1cc(-c2ccnn2C)c2ccnc(-c3ccn[nH]3)c2n1 (stereo not given) + C=CC(=O)N1CCN(c2nc(OCC3CCCN3C)nc3c2CCN(c2cccc4cccc(C)c24)C3)CC1CC#N
inactive: viability, T/C (second compound 0.0316 µM, first compound 0.01 µM) 95.8% | viability, T/C (second compound 0.0316 µM, first compound 0.0316 µM) 48.6% | viability, T/C (second compound 0.0316 µM, first compound 0.1 µM) 10.9% | viability, T/C (second compound 0.0316 µM, first compound 0.316 µM) 13.4% | viability, T/C (second compound 0.0316 µM, first compound 1 µM) 21.8% | viability, T/C (second compound 0.0316 µM, first compound 3.16 µM) 27.5% | viability, T/C [1] 109% | viability, T/C [2] 46.4% | viability, T/C [3] 9.45% | viability, T/C [4] 13.1% | viability, T/C [5] 21.9% | viability, T/C [6] 26.9% | viability, T/C [7] 96% | viability, T/C [8] 32% | viability, T/C [9] 7.93% | viability, T/C [10] 11.4% | viability, T/C [11] 19.9% | viability, T/C [12] 27.3% | viability, T/C [13] 77.8% | viability, T/C [14] 17.8% | viability, T/C [15] 5.2% | viability, T/C [16] 9.79% | viability, T/C [17] 17.1% | viability, T/C [18] 21.1%
active: viability, T/C [19] 10.7% | viability, T/C [20] 6.36% | viability, T/C [21] 4.26% | viability, T/C [22] 6.86% | viability, T/C [23] 11% | viability, T/C [24] 15.3%
30.6 nM: IC50 (second compound 0.0316 µM)
< 10 nM: IC50 (second compound 3.16 µM)
29.6 nM: IC50 (second compound 0.1 µM)
17 nM: IC50 (second compound 1 µM)
22.9 nM: IC50 (second compound 0.316 µM)

COc1cc(Nc2ncc3c(n2)-c2ccc(Cl)cc2C(c2c(F)cccc2OC)=NC3)ccc1C(=O)O + CNCc1ccccc1-c1csc(C(C)Nc2nc(C)nc3cc(OC)c(OC)cc23)c1
75.6 nM: IC50 (second compound 0.1 µM)
inactive: viability, T/C [2] 57.5% | viability, T/C [3] 48.2% | viability, T/C [4] 43.6% | viability, T/C [5] 48.2% | viability, T/C [6] 49.2% | viability, T/C (second compound 0.1 µM, first compound 10 µM) 43.6% | viability, T/C [8] 48.4% | viability, T/C [9] 45.4% | viability, T/C [10] 51.4% | viability, T/C [11] 46% | viability, T/C [12] 47.6% | viability, T/C (second compound 0.316 µM, first compound 10 µM) 39.8% | viability, T/C [14] 39.7% | viability, T/C [15] 31.4% | viability, T/C [16] 34.5% | viability, T/C [17] 28.4% | viability, T/C [18] 35.2% | viability, T/C (second compound 1 µM, first compound 10 µM) 40.9%
active: viability, T/C [20] 0.73% | viability, T/C [21] 0.13% | viability, T/C [22] 1.25% | viability, T/C [23] 1.11% | viability, T/C [24] 0.12% | viability, T/C (second compound 3.16 µM, first compound 10 µM) 1.59% | viability, T/C [25] 0.28% | viability, T/C (second compound 10 µM, first compound 0.1 µM) 0.29% | viability, T/C (second compound 10 µM, first compound 0.316 µM) 0.26% | viability, T/C (second compound 10 µM, first compound 1 µM) 0.51% | viability, T/C (second compound 10 µM, first compound 3.16 µM) 1.28% | viability, T/C (second compound 10 µM, first compound 10 µM) 0.37%
< 31.6 nM: IC50 (second compound 0.316 µM) | IC50 (second compound 1 µM) | IC50 (second compound 3.16 µM) | IC50 (second compound 10 µM)

CC(=O)Nc1cccc(-n2c(=O)n(C3CC3)c(=O)c3c(Nc4ccc(I)cc4F)n(C)c(=O)c(C)c32)c1 + CNCc1ccccc1-c1csc(C(C)Nc2nc(C)nc3cc(OC)c(OC)cc23)c1
inactive: viability, T/C (second compound 0.1 µM, first compound 0.0001 µM) 70.5% | viability, T/C (second compound 0.1 µM, first compound 0.000316 µM) 44.9% | viability, T/C (second compound 0.1 µM, first compound 0.001 µM) 28.5% | viability, T/C (second compound 0.1 µM, first compound 0.00316 µM) 27.1% | viability, T/C [1] 20.9% | viability, T/C [2] 15.9% | viability, T/C (second compound 0.316 µM, first compound 0.0001 µM) 69% | viability, T/C (second compound 0.316 µM, first compound 0.000316 µM) 43.6% | viability, T/C (second compound 0.316 µM, first compound 0.001 µM) 38% | viability, T/C (second compound 0.316 µM, first compound 0.00316 µM) 26.3% | viability, T/C [7] 22.2% | viability, T/C [8] 14.1% | viability, T/C (second compound 1 µM, first compound 0.0001 µM) 81.5% | viability, T/C (second compound 1 µM, first compound 0.000316 µM) 39.6% | viability, T/C (second compound 1 µM, first compound 0.001 µM) 35.7% | viability, T/C (second compound 1 µM, first compound 0.00316 µM) 24.5%
< 0.1 nM: IC50 (second compound 3.16 µM) | IC50 (second compound 10 µM)
0.312 nM: IC50 (second compound 1 µM)
0.252 nM: IC50 (second compound 0.1 µM)
active: viability, T/C [13] 7.75% | viability, T/C [14] 2.12% | viability, T/C (second compound 3.16 µM, first compound 0.0001 µM) 1.11% | viability, T/C (second compound 3.16 µM, first compound 0.000316 µM) 0.2% | viability, T/C (second compound 3.16 µM, first compound 0.001 µM) 1.26% | viability, T/C (second compound 3.16 µM, first compound 0.00316 µM) 0.11% | viability, T/C [19] 0.95% | viability, T/C [20] 0.19% | viability, T/C (second compound 10 µM, first compound 0.0001 µM) 0.21% | viability, T/C (second compound 10 µM, first compound 0.000316 µM) 0.24% | viability, T/C (second compound 10 µM, first compound 0.001 µM) 0.18% | viability, T/C (second compound 10 µM, first compound 0.00316 µM) 0.4% | viability, T/C (second compound 10 µM, first compound 0.01 µM) 2.28% | viability, T/C [25] 0.26%
0.285 nM: IC50 (second compound 0.316 µM)
